# System: ROS production in SF268 cells
# Test: Intracellular reactive oxygen species production (DCFDA)
# Assay type: cell-based, Human
# Conditions: derivatives 10 µg/mL for 3 h, H2O2 100 µM positive control
# Description: Intracellular ROS formation was measured by fluorometry with the reactive dye chloromethyl dichlorodihydrofluorescein diacetate (DCFDA; Molecular Probes). […] Cultures were incubated with curcumin derivatives at 10 μg/mL for 3 h, after which the ROS-specific fluorescent dye DCFDA solution was added to the cells. After 30 min, fluorescence was measured at a wavelength of 485 nm (excitation)/535 nm (emission) using a microplate reader (Molecular Devices, San Jose, CA, USA).
# Intracellular ROS production was tested following the treatment of SF268 cells with the curcumin derivatives at 10 μg/mL by fluorometry after staining with DCFDA.
# Figure 7 Effects of curcumin derivatives on ROS generation. Cells were treated with curcumin derivatives at 10 μg/mL for 3 h. ROS production was determined using the DCFH-DA assay.
row,Structure (SMILES),ROS production
1,"OO [Compound H2O2, Hydrogen peroxide]",distinct ROS production
2,O=C1O[C@H]([C@@H](O)CO)C(O)=C1O [ascorbic acid],expected decrease
